Converted amounts (≈) assume the structure as drawn. Like-named read-outs stand apart in the source and are kept apart here.
How the values were obtained:
[1] = test system: bacterial isolates (clinical isolates and ATCC quality control strains); assay: Minimum Inhibitory Concentrations (MICs) by broth microdilution (CLSI susceptibility testing); type: cell-based
Protocol: Bacterial isolates were cultivated from −70° C. frozen stocks by overnight passages at 35° C. in ambient air on Mueller-Hinton agar (Beckton Dickinson, Franklin Lakes, N.J.). Clinical isolates tested were obtained from various geographically diverse hospitals in the US and abroad (Focus Diagnostics, Herndon, Va. and JMI, North Liberty, Iowa). Quality control strains were from the American Type Culture Collection (ATCC; Rockville, Md.).
Minimum Inhibitory Concentrations (MICs) were determined by the broth microdilution method in accordance with the Clinical and Laboratory Standards Institute (CLSI) guidelines. In brief, organism suspensions were adjusted to a 0.5 McFarland standard to yield a final inoculum between 3×10^5 and 7×10^5 colony-forming units (CFU)/mL. Drug dilutions and inocula were made in sterile, cation adjusted Mueller-Hinton Broth (Beckton Dickinson). An inoculum volume of 100 μL was added to wells containing 100 μL of broth with 2-fold serial dilutions of drug. All inoculated microdilution trays were incubated in ambient air at 35° C. for 18-24 h. Following incubation, the lowest concentration of the drug that prevented visible growth (OD600 nm<0.05) was recorded as the MIC. Performance of the assay was monitored by the use of laboratory quality-control strains and levofloxacin, a compound with a defined MIC spectrum, in accordance with CLSI guidelines.

[2] = test system: 3 P. aeruginosa strains (APAE001, APAE002, APAE006); assay: Protein binding: fold change in MIC in the presence of 2% HSA and 0.05% AGP, Geomean of 3 strains; type: cell-based, Pseudomonas aeruginosa; conditions: MIC in the presence of 2% HSA and 0.05% AGP divided by MIC in the absence; Geomean of 3 P. aeruginosa strains (APAE001, APAE002, APAE006)
Protocol: The effect of human serum albumin (HSA) and α-1-acid glycoprotein (AGP) from human plasma, which are known to nonspecifically bind to certain antibiotics and thereby reduce their activity (Banéres-Roquet et al. 2009 “Use of a Surface Plasmon Resonance Method to Investigate Antibiotic and Plasma Protein Interactions” Antimicrob. Agents and Chemother. 53(4):1528-1531), was assessed against 3 P. aeruginosa strains (APAE001, APAE002, APAE006). APAE001 is Pseudomonas aeruginosa ATCC27853; APAE002 is a wildtype lab strain of Pseudomonas aeruginosa known as PAM1020 or PA01. APAE006 is a strain of […]/PA01 with efflux deletions: delta mexAB-oprM::CM delta CD-oprJ::Gm delta mexEF-oprN::omega Hg. Lomovskaya, 0 et al. 1999. Use of a Genetic Approach To Evaluate the Consequences of Inhibition of Efflux Pumps in P aeruginosa. Antimicrob. Agents Chemother. 43: 1340-1346.
The standard procedure described in Susceptibility Testing was utilized with one adjustment, specifically 2% HSA and 0.05% AGP were added to the cation adjusted Mueller-Hinton Broth. The MIC for each strain of interest was then assessed in the presence and absence of HSA/AGP. Following MIC determination, the fold change in MIC was determined for each individual strain by dividing the MIC in the presence of HSA/AGP by the MIC in the absence of HSA/AGP. The protein binding Geomean was then calculated using these 3 values.

[3] = APAE1096 is a clinical isolate, broth microdilution, read-out: Minimum Inhibitory Concentrations (MICs) APAE1096
[4] = Pseudomonas aeruginosa, APAE002 is a wildtype lab strain of Pseudomonas aeruginosa known as PAM1020 or PA01, broth microdilution, read-out: Minimum Inhibitory Concentrations (MICs) APAE002
[5] = Pseudomonas aeruginosa, ATCC27853, APAE001 is Pseudomonas aeruginosa ATCC27853, broth microdilution, read-out: Minimum Inhibitory Concentrations (MICs) APAE001
[6] = Pseudomonas aeruginosa, ATCC27853, read-out: Minimum Inhibitory Concentrations (MICs) APAE001
[7] = Pseudomonas aeruginosa, read-out: Minimum Inhibitory Concentrations (MICs) APAE002
[8] = read-out: Minimum Inhibitory Concentrations (MICs) APAE1096

SMILES	MIC [1, 3]	MIC [1, 4]	MIC [1, 5]	Protein Binding PB (Geomean of fold change in MIC) [2]	MIC [1, 6]	MIC [1, 7]	MIC [1, 8]
CC(C)(O)[C@H](NC(=O)c1ccc(C#CC#CCO)cc1)C(=O)NO [Compound 4, (S)—N-(3-hydroxy-1-(hydroxyamino)-3-methyl-1-oxobutan-2-yl)-4-(5-hydroxypenta-1,3-diynyl)benzamide]	1 to 8 µg/mL (≈ 3.03 to 24.2 µM)	< 1 µg/mL	< 1 µg/mL	–	–	–	–
CNC(C)(C)[C@H](NC(=O)c1ccc(C#CC#CCO)cc1)C(=O)NO [Compound 5, (S)—N-(1-(hydroxyamino)-3-methyl-3-(methylamino)-1-oxobutan-2-yl)-4-(5-hydroxypenta-1,3-diynyl)benzamide]	< 1 µg/mL	< 1 µg/mL	< 1 µg/mL	1.6	–	–	–
CC(C)(NCCO)[C@H](NC(=O)c1ccc(C#CC#CCO)cc1)C(=O)NO [Compound 6, (S)—N-(1-(hydroxyamino)-3-(2-hydroxyethylamino)-3-methyl-1-oxobutan-2-yl)-4-(5-hydroxypenta-1,3-diynyl)benzamide]	1 to 8 µg/mL (≈ 2.68 to 21.4 µM)	< 1 µg/mL	< 1 µg/mL	2.6	–	–	–
CC(C)(N)[C@H](NC(=O)c1ccc(C#CC#CCCO)cc1)C(=O)NO [Compound 7, (S)—N-(3-amino-1-(hydroxyamino)-3-methyl-1-oxobutan-2-yl)-4-(6-hydroxyhexa-1,3-diynyl)benzamide]	< 1 µg/mL	< 1 µg/mL	< 1 µg/mL	2.5	–	–	–
CC(C)(N)[C@H](NC(=O)c1ccc(C#CCCO)cc1)C(=O)NO [Compound 8, (S)—N-(3-amino-1-(hydroxyamino)-3-methyl-1-oxobutan-2-yl)-4-(4-hydroxybut-1-ynyl)benzamide]	8 to 16 µg/mL (≈ 25.1 to 50.1 µM)	1 to 8 µg/mL (≈ 3.13 to 25.1 µM)	1 to 8 µg/mL (≈ 3.13 to 25.1 µM)	0.9	–	–	–
CNC(C)(C)[C@H](NC(=O)c1ccc(C#CC#CCCO)cc1)C(=O)NO [Compound 9, (S)—N-(1-(hydroxyamino)-3-methyl-3-(methylamino)-1-oxobutan-2-yl)-4-(6-hydroxyhexa-1,3-diynyl)benzamide]	–	–	–	1.5	< 1 µg/mL	< 1 µg/mL	< 1 µg/mL
CCNC(C)(C)[C@H](NC(=O)c1ccc(C#CC#CCCO)cc1)C(=O)NO [Compound 10, (S)—N-(3-(ethylamino)-1-(hydroxyamino)-3-methyl-1-oxobutan-2-yl)-4-(6-hydroxyhexa-1,3-diynyl)benzamide]	–	–	–	2.2	< 1 µg/mL	< 1 µg/mL	< 1 µg/mL
CC(C)(NCCO)[C@H](NC(=O)c1ccc(C#CC#CCCO)cc1)C(=O)NO [Compound 11, (S)—N-(1-(hydroxyamino)-3-(2-hydroxyethylamino)-3-methyl-1-oxobutan-2-yl)-4-(6-hydroxyhexa-1,3-diynyl)benzamide]	1 to 8 µg/mL (≈ 2.58 to 20.6 µM)	< 1 µg/mL	< 1 µg/mL	1.5	–	–	–
Cc1cc(CNC(C)(C)[C@H](NC(=O)c2ccc(C#CC#CCCO)cc2)C(=O)NO)no1 [Compound 12, (S)—N-(1-(hydroxyamino)-3-methyl-3-((5-methylisoxazol-3-yl)methylamino)-1-oxobutan-2-yl)-4-(6-hydroxyhexa-1,3-diynyl)benzamide]	8 to 16 µg/mL (≈ 18.2 to 36.5 µM)	1 to 8 µg/mL (≈ 2.28 to 18.2 µM)	1 to 8 µg/mL (≈ 2.28 to 18.2 µM)	2.9	–	–	–
CC(C)(N)[C@H](NC(=O)c1ccc(C#CC#CC(O)CCO)cc1)C(=O)NO (stereo partly drawn) [Compound 46, N—((S)-3-amino-1-(hydroxyamino)-3-methyl-1-oxobutan-2-yl)-4-(5,7-dihydroxyhepta-1,3-diyn-1-yl)benzamide]	1 to 8 µg/mL (≈ 2.68 to 21.4 µM)	< 1 µg/mL	< 1 µg/mL	–	–	–	–
CC(C)(O)[C@H](NC(=O)c1ccc(C#CC#CC(O)CO)cc1)C(=O)NO (stereo partly drawn) [Compound 60, 4-(5,6-dihydroxyhexa-1,3-diyn-1-yl)-N—((S)-3-hydroxy-1-(hydroxyamino)-3-methyl-1-oxobutan-2-yl)benzamide]	–	–	1 to 8 µg/mL (≈ 2.77 to 22.2 µM)	–	–	–	–

From US20150175530A1, “ANTIBACTERIAL AGENTS” (priority 2012, published 2015)
